Data set [1] has as its system human chronic myeloid leukemia cells K-562 (DSM ACC 10). Nature of the data set: Growth inhibition (antiproliferative effect) of K-562. The data set is classed as cell-based.
Protocol: (§2) Compounds were assayed against human umbilical vein endothelial cells HUVEC (ATCC CRL-1730) and human chronic myeloid leukemia cells K-562 (DSM ACC 10) for their antiproliferative effects (GI50) and against human cervix carcinoma cells HeLa (DSM ACC 57) for their cytotoxic effects (CC50) as previously described (Scherlach, K., Partida-Martinez, L. P., Dahse, H. M. & Hertweck, C. Antimitotic rhizoxin derivatives from a cultured bacterial endosymbiont of the rice pathogenic fungus Rhizopus microsporus. Journal of the American Chemical Society 128, 11529-11536 (2006)).
The test system of data set [2] is Mycobacterium vaccae 10670. The data set is described as follows: Antimicrobial activity (MIC), test strain Mycobacterium vaccae 10670. Type of data set: cell-based. From the text:
Antimicrobial (MIC value [μM]), cytotoxic (CC50 [μM] for HeLa) and antiproliferative (GI50 [μM] for HUVEC, K-562, HT-29 and MEL-HO) activities of chartreusin and its derivatives. Test strain: Mycobacterium vaccae 10670.

The nature of data set [3]: Cytotoxicity against HeLa. As to conditions: human, HeLa cells (human cervix carcinoma, DSM ACC 57).
Protocol: as §2
The test system of data set [4] is human umbilical vein endothelial cells HUVEC (ATCC CRL-1730). The data set is described as follows: Growth inhibition (antiproliferative effect) of HUVEC. The data set is classed as cell-based. As to conditions: read-out: antiproliferative GI50, HUVEC.
Protocol: as §2
Data set [5] relates to human cervix carcinoma cells HeLa (DSM ACC 57). Nature of the data set: Cytotoxicity against HeLa. The settings on record: for CC50: read-out: cytotoxic CC50, HeLa, HeLa.
Protocol: as §2
Data set [6] deals with human HT-29 colon adenocarcinoma cells (ACC 299). The data set is described as follows: Growth inhibition of HT-29 in the presence or absence of light. The data set is classed as cell-based. Here is the method: (§1) The human HT-29 colon adenocarcinoma cells (ACC 299) and the human MEL-HO (ACC 62) melanoma cells were grown as previously described (Ueberschaar, N.; Dahse, H.-M.; Bretschneider, T.; Hertweck, C. Angew. Chem. Int. Ed. 2013, 52, 6185-6189).

Data set [7] deals with human MEL-HO (ACC 62) melanoma cells. Nature of the data set: Growth inhibition of MEL-HO in the presence or absence of light. The data set is classed as cell-based. As for the experimental part:
as §1

The nature of data set [8]: in vitro. As to conditions: human.
Protocol: as §2
Data set [9] deals with methicillin-resistant Staphylococcus aureus (MRSA). Nature of the data set: Antibiotic activity against MRSA. The data set is classed as cell-based.
[10] abbreviates: Homo sapiens, K562; read-out: antiproliferative GI50, K-562.
The mark [11] stands for this setting: Mycolicibacterium vaccae, Test strain: Mycobacterium vaccae 10670, read-out: Antimicrobial MIC value, Mycobacterium vaccae.
[12] abbreviates: K-562; read-out: antiproliferative GI50, K-562.
Setting [13] is: Test strain: Mycobacterium vaccae 10670, read-out: Antimicrobial MIC value, Mycobacterium vaccae.
[14] abbreviates: Mycolicibacterium vaccae, 10670, read-out: Antimicrobial MIC value, Mycobacterium vaccae.
Setting [15] is: Homo sapiens, HT-29, 8 h, read-out: antiproliferative GI50, HT-29, 420 nm, 3 × 8 h, HT-29, 420 nm, 3 × 8 h.
The mark [16] stands for this setting: Homo sapiens, HT-29, read-out: GI50 with light, HT-29, HT-29, with light (blue LED).
Setting [17] is: Homo sapiens, HT-29, read-out: GI50 without light, HT-29, HT-29, without light (absence of light).
The mark [18] stands for this setting: Homo sapiens, HT-29, read-out: antiproliferative GI50, HT-29, w/o light, HT-29, w/o light.
Where [19] appears, read: read-out: GI50 without light, HT-29, HT-29, without light (absence of light).
[20] abbreviates: Homo sapiens, K562, read-out: antiproliferative GI50, K-562.
Where [21] appears, read: 8 h, read-out: antiproliferative GI50, Mel-HO, 420 nm, 3 × 8 h.
[22] abbreviates: read-out: antiproliferative GI50, Mel-HO, w/o light.

In brackets after ≈: the same amount, converted by molar mass. Read-outs that look alike come from different tables or passages of the source.

The source of these data is US9522930B2, “Chartreusin analogues” (Leibniz-Institut Für Naturstoff-Forschung Und …, priority 2012, dated 2016).

With `COC1[C@@H](O)C(C)O[C@H](OC2[C@H](Oc3cccc4c(O)c5c(=O)oc6ccc(O)c7c(=O)oc(c34)c5c67)OC(C)[C@H](O)[C@@H]2O)[C@@H]1O` (stereo partly shown), the GI50 is 4.82 µM in [1] (setting [10]) and 35 µM in data set [4] (Homo sapiens). The minimal inhibitory concentration (MIC) in data set [2] (setting [11]) was found to be 2.4 µM (≈ 1.54 µg/mL). The compound further came in with a CC50 in [3] of 25.5 µM.

`COC1[C@@H](O)C(C)O[C@H](OC2[C@H](Oc3cccc4c(O)c5c(=O)oc6cccc7c(=O)oc(c34)c5c67)OC(C)[C@H](O)[C@@H]2O)[C@@H]1O` (stereo partly shown) [Norchartreusin]: the GI50 in data set [1] (setting [10]) came to 31.6 µM; in data set [4] (Homo sapiens) it was 79.8 µM. For the same compound, in data set [2] (setting [11]), the MIC was determined as 2.5 µM (≈ 1.57 µg/mL). For the same compound, the CC50 in data set [3] came to 70.7 µM.

Consider “vinylchartarin-1,10 bis-1,4′-bipiperidine-1′-carboxylate”, for which the GI50 in data set [1] (setting [12]) and in [4] was above 68 µM in each case. For the same compound, the MIC in data set [2] (setting [13]) is reported as above 100 µM. In [5], the CC50 is above 68 µM.

With `CCc1ccc2oc(=O)c3c(O)c4cccc(O[C@@H]5OC(C)[C@H](O)C(O)C5O[C@H]5OC(C)[C@H](O)C(OC)C5O)c4c4oc(=O)c1c2c34` (stereo partly shown) [Homochartreusin], the GI50 in data set [1] (setting [10]) was 2.14 µM; in [4] (Homo sapiens), 7.18 µM. Besides, the MIC in data set [2] (setting [11]) came out at 9.6 µM (≈ 6.28 µg/mL). The CC50 in data set [3] worked out at 23.1 µM. Besides, the “selectivity (GI50 HUVEC versus cytotoxic activity HeLa)” value in data set [5] (compared with Chartreusin, HUVEC GI50 similarly low, HeLa CC50 different) was “higher selectivity”.

“Norchartarin-1,10 bis-1,4′-bipiperidine-1′-carboxylate”: the values for the GI50 in data set [1] (setting [12]) and in [4] were 52.2 µM and 52.3 µM, respectively. Moreover, the minimal inhibitory concentration (MIC) in data set [2] (setting [13]) is on record as above 100 µM. For the same compound, the CC50 in data set [5] was above 71 µM.

Turning to `COc1ccc2oc(=O)c3c(O)c4cccc(O[C@@H]5OC(C)[C@H](O)[C@H](O)C5O[C@H]5OC(C)[C@H](O)C(OC)[C@H]5O)c4c4oc(=O)c1c2c34` (stereo partly shown) [Methoxychartreusin], the GI50 in data set [1] (setting [10]) and in data set [4] (Homo sapiens) was above 76 µM in each case. Moreover, in data set [2] (setting [11]), the MIC came to 76 µM (≈ 49.9 µg/mL). Besides, the CC50 in data set [3] was above 76 µM.

Consider `CCc1cc2oc(=O)c3c(O)c4cccc(O[C@@H]5OC(C)[C@H](O)[C@H](O)C5O[C@H]5OC(C)[C@H](O)C(OC)[C@H]5O)c4c4oc(=O)c(c1)c2c34` (stereo partly shown) [(1→2)Abeohomochartreusin, (1→2)-Abeo-homochartreusin], for which the GI50 in [1] (setting [10]) came to 11.6 µM; in data set [4] (Homo sapiens) it was 26.6 µM. The minimal inhibitory concentration (MIC) in data set [2] (setting [11]) came out at 19.1 µM (≈ 12.5 µg/mL). Moreover, the CC50 in data set [3] turned out to be 58.1 µM.

Take `Cc1ccc2oc(=O)c3c(OC(=O)N4CCC(N5CCCCC5)CC4)c4cccc(OC(=O)N5CCC(N6CCCCC6)CC5)c4c4oc(=O)c1c2c34` [Chartarin-1,10 bis-1,4′-bipiperidine-1′-carboxylate]: the figures for the GI50 in data set [1] (setting [10]) and in data set [4] (Homo sapiens) were 3.18 µM and 4.43 µM, respectively. Also, the minimum inhibitory concentration (MIC) in data set [2] (setting [14]) was above 100 µM. This compound came in with a CC50 in data set [3] of 10.1 µM.

Consider `C=Cc1cc2oc(=O)c3c(O)c4cccc(O[C@@H]5OC(C)[C@H](O)[C@H](O)C5O[C@H]5OC(C)[C@H](O)C(OC)[C@H]5O)c4c4oc(=O)c(c1)c2c34` (stereo partly shown) [(1→2)Abeovinylchartreusin, (1→2)-Abeo-vinylchartreusin], for which the GI50 in [6] (setting [15]) is 3.06 µM; in [6] (setting [16]) it was 3.1 µM; in data set [6] (setting [17]), 7 to 9.4 µM; in [6] (setting [18]), 9.35 µM; in [6] (setting [19]), 9.4 µM; in data set [1] (setting [20]), 4.9 µM. Also, the GI50 in data set [7] (setting [21]) is 0.48 µM; in data set [7] (setting [22]), 1.03 µM; in data set [4] (Homo sapiens) it was 16.9 µM. Besides, the MIC in data set [2] (setting [11]) turned out to be 19.2 µM (≈ 12.5 µg/mL). The compound further displayed a CC50 in [8] of 33.7 µM.

With `COC1[C@@H](O)C(C)O[C@H](OC2[C@H](Oc3cccc4c(O)c5c(=O)oc6cc(C)cc7c(=O)oc(c34)c5c67)OC(C)[C@H](O)[C@@H]2O)[C@@H]1O` (stereo partly shown) [(1→2)Abeochartreusin, (1→2)-Abeo-chartreusin], the GI50 in [1] (setting [10]) turned out to be 2.03 µM; in [4] (Homo sapiens), 5.78 µM. Also, the minimum inhibitory concentration (MIC) in data set [2] (setting [11]) was 4.87 µM (≈ 3.12 µg/mL). The compound further showed a CC50 in data set [3] of 14.2 µM.

Turning to `COC1[C@@H](O)C(C)O[C@H](OC2[C@H](Oc3cccc4c(O)c5c(=O)oc6ccc(Br)c7c(=O)oc(c34)c5c67)OC(C)[C@H](O)[C@@H]2O)[C@@H]1O` (stereo partly shown) [Bromchartreusin, 1-Bromochartreusin], the GI50 amounted to 8.79 µM in data set [1] (setting [10]) and 65.8 µM in data set [4] (Homo sapiens). Also, the MIC in data set [2] (setting [11]) stood at 8.9 µM (≈ 6.28 µg/mL). The CC50 in data set [3] turned out to be 48.2 µM.

With `O=C(Oc1c2cccc(OC(=O)N3CCC(N4CCCCC4)CC3)c2c2oc(=O)c3c(Br)ccc4oc(=O)c1c2c43)N1CCC(N2CCCCC2)CC1` [Bromchartarin-1,10 bis-1,4′-bipiperidine-1′-carboxylate], the figures for the GI50 in [1] (setting [10]) and in [4] (Homo sapiens) were 9.27 µM and 10 µM, respectively. In data set [2] (setting [14]), the MIC was above 100 µM. Also, in [3], the CC50 was determined as 20.2 µM.

For `C#Cc1cc2oc(=O)c3c(O)c4cccc(O[C@@H]5OC(C)[C@H](O)[C@H](O)C5O[C@H]5OC(C)[C@H](O)C(OC)[C@H]5O)c4c4oc(=O)c(c1)c2c34` (stereo partly shown) [(1→2)Abeo-ethinylchartreusin, (1→2)-Abeo-ethynylchartreusin], the “activity higher in the presence of light, HT-29” value in [6] (HT-29, with light vs without light) is 5 fold. Also, the GI50 in data set [6] (setting [15]) is 1.69 µM; in data set [6] (setting [16]), 1.7 µM; in [6] (setting [17]), 7 to 9.4 µM; in [6] (setting [18]), 8.61 µM; in data set [6] (setting [19]), 8.6 µM; in data set [1] (setting [20]), 3.23 µM. Further, the GI50 was found to be 1.38 µM in data set [7] (setting [21]), 2 µM in data set [7] (setting [22]) and 7.84 µM in data set [4] (Homo sapiens). Also, the “antibiotic activity against MRSA relative to chartreusin and ciprofloxacin” value in data set [9] is “as active as the natural product and are even more potent than the reference antibiotic ciprofloxacin”. In data set [2] (setting [11]), the minimum inhibitory concentration (MIC) was 19.2 µM (≈ 12.5 µg/mL). The CC50 in [8] amounted to 13.4 µM.

On to `COC1[C@@H](O)C(C)O[C@H](OC2[C@H](Oc3cccc4c(O)c5c(=O)oc6cc(Br)cc7c(=O)oc(c34)c5c67)OC(C)[C@H](O)[C@@H]2O)[C@@H]1O` (stereo partly shown) [(1→2)Abeobromchartreusin, (1→2)-Abeo-bromochartreusin], for which the GI50 was 8.65 µM in data set [1] (setting [10]) and 25.1 µM in [4] (Homo sapiens). Moreover, the MIC in data set [2] (setting [11]) came to 17.7 µM (≈ 12.5 µg/mL). Besides, the CC50 in [3] stood at 26.1 µM.

As for `C#Cc1ccc2oc(=O)c3c(O)c4cccc(O[C@@H]5OC(C)[C@H](O)[C@H](O)C5O[C@H]5OC(C)[C@H](O)C(OC)[C@H]5O)c4c4oc(=O)c1c2c34` (stereo partly shown) [Ethinylchartreusin, Ethynylchartreusin], the GI50 in data set [6] (Homo sapiens, HT-29, 8 h, HT-29, 420 nm, 3 × 8 h, read-out: antiproliferative GI50, HT-29, 420 nm, 3 × 8 h) was 26.9 µM; in [6] (Homo sapiens, HT-29, HT-29, w/o light, read-out: antiproliferative GI50, HT-29, w/o light) it was 33.2 µM; in [1] (setting [10]) it was 64.1 µM; in data set [4] (Homo sapiens), above 77 µM. For the same compound, the MIC in data set [2] (setting [11]) came to 19.2 µM (≈ 12.5 µg/mL). In data set [3], this compound had a CC50 above 77 µM.
